{"source": "patent US9420799B2", "about": "“Method for controlling nematode pests” (Syngenta Participations AG, priority 2011, dated 2016)", "system": "soybean cyst nematode (SCN)", "test": "Yield response field trials: soybean seed treated with Pasteuria nishizawae, compared with seed not treated with Pasteuria", "type": "in vivo, Heterodera glycines", "conditions": "for Yield Response for Resistant Varieties / Yield Response for Susceptible Varieties: approx. 1×10^7 spores/seed, percent yield increase vs seeds not treated with Pasteuria, averaged; for Yield Response for Susceptible Varieties: SCN susceptible soybean varieties", "method": "Yield Response Experiment\nMultiple field trials were conducted across the United States Midwest region. Baseline nematode populations were determined by sampling from 4 untreated plots. Samples were taken (10 cores per plot) at a depth of 6-8 inches (approx. 15.2-20.3 cm). Samples were stored in a cooler until laboratory assays (eggs/100 cc) were performed.\nTo allow for sufficient viability to assess results properly, both SCN resistant and susceptible varieties were treated with an insecticide and fungicide seed treatment (CRUISERMAXX seed treatment for beans available from Syngenta Crop Protection, LLC including thiamethoxam (22.61%); mefenoxam (1.70%) and fludioxonil (1.12%)). In addition for some test groups Pasteuria nishizawae treatment was applied at a rate of approximately 1×10^7 spores/seed. Percent yield increase was determined by comparing seeds treated with Pasteuria to those not treated with Pasteuria.\nThe results of 119 separate trials were sorted according to initial SCN pressure at trial location. Yield data were averaged."}
{"substance": "Pasteuria nishizawae", "values": [{"measurement": "Yield Response for Resistant Varieties", "setting": "SCN resistant soybean varieties, SCN pressure 0 eggs/100 cc", "result": 0.3, "unit": "%"}, {"measurement": "Yield Response for Resistant Varieties", "setting": "SCN resistant soybean varieties, SCN pressure 1-500 eggs/100 cc", "result": 0.7, "unit": "%"}, {"measurement": "Yield Response for Resistant Varieties", "setting": "SCN resistant soybean varieties, SCN pressure 501-1000 eggs/100 cc", "result": 2.6, "unit": "%"}, {"measurement": "Yield Response for Resistant Varieties", "setting": "SCN resistant soybean varieties, SCN pressure >1000 eggs/100 cc", "result": 5.2, "unit": "%"}, {"measurement": "Yield of resistant varieties, result in words", "setting": "SCN resistant soybean varieties, all pest pressures", "result": "showed increase yield over non-Pasteuria treated soybean seed regardless of pest pressure"}, {"measurement": "Yield Response for Susceptible Varieties", "setting": "SCN pressure 0 eggs/100 cc", "result": 1.3, "unit": "%"}, {"measurement": "Yield Response for Susceptible Varieties", "setting": "SCN pressure 1-500 eggs/100 cc", "result": 1.0, "unit": "%"}, {"measurement": "Yield Response for Susceptible Varieties", "setting": "SCN pressure 501-1000 eggs/100 cc", "result": 0.8, "unit": "%"}, {"measurement": "Yield Response for Susceptible Varieties", "setting": "SCN pressure >1000 eggs/100 cc", "result": 0.0, "unit": "%"}, {"measurement": "Yield of varieties with no resistance or tolerance to SCN, result in words", "setting": "soybean varieties having no resistance or tolerance to SCN, benefit mostly in absence of or with low pest pressure", "result": "generally benefitted from treatment with Pasteuria"}]}
